Reference: US20180021460A1, “PROBES AND METHODS FOR DETECTING AMYLOIDOGENIC PROTEINS” (Academia Sinica, priority 2016, published 2018)
Non-standard residues stand in square brackets, D forms with d. No end group written: not given here. o‑nitrobenzyl photocleavable linker = o-nitrobenzyl photocleavable moiety placed between the 8R peptide and the amyloidogenic sequence; Alexa568 = Alexa568 fluorophore linked to the cysteine residue

What was measured:
[1] = Transmission electron microscopy (vesicle size, fibril formation); assay type: physicochemical; details: upon illumination 335-379 nm, 8.24 mW/cm^2, 3 mins
Experimental: Transmission Electron Microscopy
The resulting aliquots of peptide solutions (5 μL) were applied on glow-charged 300 mesh formvar- and carbon-coated copper grids stained with 1% uranyl acetate. After drying overnight, all samples were analyzed using a JEM-2011 electron microscope (JEOL, Japan).

[2] = tested on: Ran (RAS-related nuclear protein); experiment: Localization of endogenous Ran in JHR2-treated cells; assay type: cell-based
Experimental: (§1) Mouse neuroblastoma N2A cells (generous gift from Dr. Yijuang Chern, IBMS, Academia Sinica) were cultured in Dulbecco's modified Eagle's medium (DMEM) (Invitrogen) supplemented with 2 mM glutamine, 10% heat-inactivated fetal bovine serum and 100 U/mL penicillin-streptomycin (Invitrogen) at 37° C. in a humidified atmosphere with 5% CO2. Before peptide incubation, cells were treated with 5-aminoimidazole-4-carboxamide-1-β-D-ribofuranoside (AICAR) to induce the cytoplasmic mislocalization of TDP-43. JHR2 was prepared by dissolving the lyophilized powder in the cell culture medium. Cells were incubated with polypeptide-containing medium for 3 hr, washed, and UV-illuminated (mercury lamp with 345-385 nm bandpass filter, average power: 8.24 mW/cm^2).
(§2) For EGFP-TDP-43 expression, 2×10^5 of N2A cells in a 30-mm square coverslip were transfected with 1 μg of full-length TDP-43-EGFP plasmid with TurboFect Transfection Reagent (Thermo Scientific) according to the manufacturer's protocol. After peptide and photolysis treatment as described above, cells were incubated for an additional 24 hr and then fixed with 4 paraformaldehyde. Confocal images were captured with LSM 880 and super resolution imaging was performed with Airy Scan (Zeiss, Germany). For immunostaining, anti-TDP-43 antibody (Abcam, ab104223) and anti-Ran (Abcam, ab155103) antibody were used, respectively.

EGFP-TDP-43 in N2A cells [3] = experiment: Time-lapse living cell fluorescence microscopy and Annexin V staining; assay type: cell-based, mouse
Experimental: Time-lapse Living Fluorescence Cell Microscopy and Annexin V Staining
N2A cells (5×10^4) were transfected with 1 μg of full-length TDP-43-EGFP in a sterilized 35 mm μ-Dish (Ibidi, Martinsried, Germany). The living cells were imaged with a Nikon TiE inverted microscope equipped with a Tokai-hit constant humidity chamber (37° C., 5% CO2) for 25 hr. Hoechst, EGFP, Aleax Fluor 568 and Cy5 cube filters were used to collect the fluorescence emission accordingly. Cellular images were captured with an Andor iXon3 888 back-illuminated high sensitivity EMCCD camera. Images were analyzed and quantified using Nikon NIS element software. After 24 hr of peptide treatment, the cells were washed twice with PBS, washed once with 1× Annexin V binding buffer, incubated with Annexin V-Cy5 (BioVision, USA) at room temperature and imaged.

EGFP-TDP-43 in N2A cells [4] = experiment: Microinjection of probe into N2A cells and irradiation; assay type: cell-based, mouse; details: N2A cells microinjected, data not shown
Text: The glass microneedles for microinjection (1B100-F4, World Precision Instruments, USA) were pulled with a PC-10 capillary puller (Narishige, Japan). […] A Picospriterzer III microinjection system and a joystick micromanipulator (Narishige, Japan) mounted with a stage-side of a microscope (IX-71, Olympus, Japan) were used for delivering the peptide solution into the cytosol of N2A cells. After microinjection (injection pressure, 80 hPa; injection time, 100 msec; compensation pressure, 20 hPa), cells were subsequently rinsed with 2 mL of L-15 medium supplemented with 10% FBS for 1 hr of recovery.

[5] = tested on: endogenous TDP-43 in N2A cells; experiment: Endogenous TDP-43 aggregates in N2A cells (immunostaining, high content analysis); assay type: cell-based, mouse; details: pinhole-confined UV light spot, 24 hr incubation
Experimental: (§3) Cell Maintenance, Peptide Treatment, and Photolysis
as §1
as §2, with “For immunostaining, anti-TDP-43 antibody (Abcam, ab104223) and anti-Ran (Abcam, ab155103) antibody were used, respectively.” left out

EGFP-TDP-43 in N2A cells [6] = experiment: EGFP-TDP-43 aggregation / co-localization in JHR2-treated N2A cells (confocal); assay type: cell-based, mouse
Experimental: as §3, §1
Confocal and Super-Resolution Fluorescence Microscopy with Airy Scan
as §2, with “For immunostaining, anti-TDP-43 antibody (Abcam, ab104223) and anti-Ran (Abcam, ab155103) antibody were used, respectively.” left out

TDP-43 and importin-α1 = experiment: Localization of endogenous TDP-43 and importin-α1 in JHR2-treated cells; assay type: cell-based

Substance: JHR2: Same peptide probe as JHR1 with Alexa568 fluorophore linked to the cysteine residue instead of tert-butyl thiol (RRRRRRRR[o‑nitrobenzyl photocleavable linker]MGGGMNFGAFSINPAMC(Alexa568)-NH2)
- time to detection of massive fibrils (TEM) [1]: ≤ 4 h
- Ran protein miss-localized into the cytoplasm ([2]; +JHR2+Light): > 90%
- Ran localization, probe-treated only (no light) ([2]; +JHR2−Light): mainly resided in the nucleus
- time at which EGFP-TDP-43 puncta became detectable (EGFP-TDP-43 in N2A cells [3]; N2A cells expressing EGFP-TDP-43, with JHR2, after illumination): Twenty hours after illumination, the EGFP-TDP-43 puncta became detectable
- apoptosis by Annexin V staining (EGFP-TDP-43 in N2A cells [3]; N2A cells with EGFP-TDP-43 inclusion bodies, end of time course 25 hr): on the verge of apoptosis
- onset of EGFP-TDP43 aggregation after microinjection and irradiation (EGFP-TDP-43 in N2A cells [4]): 4 h
- onset of clustering of JHR2 after microinjection and irradiation (EGFP-TDP-43 in N2A cells [4]): 2 h
- seeding of endogenous TDP-43 cytosolic aggregation within confined illuminated area [5]: selectively induced the JHR2 amyloid to “seed” endogenous TDP-43 cytosolic aggregation
- aggregates of JHR2 and EGFP-TDP-43 after irradiation (EGFP-TDP-43 in N2A cells [6]; AICAR pretreated, 24 hrs after non-focused light 335-379 nm, 8.24 mW/cm^2, 3 mins): developed pronounced aggregates and/or inclusion bodies that were largely co-localized in the cytosol
- cell penetration (EGFP-TDP-43 in N2A cells [6]; JHR2 1 μM, 3 hr): may quickly penetrate cells
- TDP-43 and importin-α1 localization under photoactivation (TDP-43 and importin-α1; +JHR2+Light): translocated from the nucleus to cytosol and formed aggregates
- importin-α1 localization, probe-treated only (no light) (TDP-43 and importin-α1; +JHR2−Light): mainly remained in the nucleus
